{"source": "ChEMBL document CHEMBL1125752", "about": "“Relationship between tissue selectivity and lipophilicity for inhibitors of HMG-CoA reductase” (J Med Chem, 1991)", "key": {"[1]": {"biological_target": "T1, 3-hydroxy-3-methylglutaryl-coenzyme A reductase (Rattus norvegicus, UniProt P51639)", "T1 sequence (P51639 whole entry)": "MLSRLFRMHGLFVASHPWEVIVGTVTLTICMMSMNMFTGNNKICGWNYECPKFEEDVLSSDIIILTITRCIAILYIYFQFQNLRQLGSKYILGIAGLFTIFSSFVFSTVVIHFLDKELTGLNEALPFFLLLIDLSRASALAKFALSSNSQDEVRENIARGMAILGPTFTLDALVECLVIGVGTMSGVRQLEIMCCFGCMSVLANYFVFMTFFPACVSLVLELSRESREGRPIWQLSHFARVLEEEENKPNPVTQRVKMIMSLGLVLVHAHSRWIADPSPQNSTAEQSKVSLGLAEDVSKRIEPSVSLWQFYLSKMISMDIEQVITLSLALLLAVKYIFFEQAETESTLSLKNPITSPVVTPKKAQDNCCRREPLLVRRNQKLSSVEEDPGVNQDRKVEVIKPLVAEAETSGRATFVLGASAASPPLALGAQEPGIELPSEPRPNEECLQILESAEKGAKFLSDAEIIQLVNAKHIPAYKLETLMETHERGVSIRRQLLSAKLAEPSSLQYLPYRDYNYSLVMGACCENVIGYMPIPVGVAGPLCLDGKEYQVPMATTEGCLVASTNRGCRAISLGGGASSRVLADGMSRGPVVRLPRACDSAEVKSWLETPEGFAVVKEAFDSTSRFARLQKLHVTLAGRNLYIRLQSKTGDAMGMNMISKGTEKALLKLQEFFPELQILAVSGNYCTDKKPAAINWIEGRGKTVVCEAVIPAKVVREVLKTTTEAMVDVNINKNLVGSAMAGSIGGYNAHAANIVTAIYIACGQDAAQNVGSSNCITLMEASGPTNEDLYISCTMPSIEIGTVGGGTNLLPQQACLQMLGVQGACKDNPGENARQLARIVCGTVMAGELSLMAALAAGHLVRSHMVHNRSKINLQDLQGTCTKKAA", "test": "Ability to inhibit microsomal preparation of HMG-CoA reductase in rat liver."}, "Rattus norvegicus [2]": {"species": "Rattus norvegicus", "test": "Incorporation of [14C]- acetate into sterols measured in rat liver.", "format": "functional, organism-based"}, "Rattus norvegicus [3]": {"species": "Rattus norvegicus", "test": "Incorporation of [14C]- acetate into sterols measured in rat spleen.", "format": "functional, organism-based"}, "Rattus norvegicus [4]": {"species": "Rattus norvegicus", "test": "Incorporation of [14C]- acetate into sterols measured in rat testis.", "format": "functional, organism-based"}, "[5]": {"test": "IC50 ratio evaluated as the IC50 values of spleen to that of liver.", "format": "functional", "set-up": "reference not given here"}, "[6]": {"test": "IC50 ratio evaluated as the IC50 values of testis to that of liver.", "format": "functional", "set-up": "reference not given here"}, "Rattus norvegicus [7]": {"species": "Rattus norvegicus", "test": "Compound was tested for its effect on the incorporation of [14C]- acetate into sterols measured rat liver.", "format": "functional, organism-based"}, "Rattus norvegicus [8]": {"species": "Rattus norvegicus", "test": "Compound was tested for its effect on the incorporation of [14C]- acetate into sterols measured rat spleen.", "format": "functional, organism-based"}, "Rattus norvegicus [9]": {"species": "Rattus norvegicus", "test": "Compound was tested for its effect on the incorporation of [14C]- acetate into sterols measured rat testis.", "format": "functional, organism-based"}}, "data": [{"smiles": "Cn1nnnc1C(/C=C/[C@@H](O)C[C@@H](O)CC(=O)[O-])=C(c1ccc(F)cc1)c1ccc(F)cc1.[Na+]", "values": [{"measurement": "IC50", "setting": "[1]", "value": 13, "unit": "nM"}, {"measurement": "IC50", "setting": "Rattus norvegicus [2]", "value": 108, "unit": "nM"}, {"measurement": "IC50", "setting": "Rattus norvegicus [3]", "value": 1580, "unit": "nM"}, {"measurement": "IC50", "setting": "Rattus norvegicus [4]", "value": 638, "unit": "nM"}, {"measurement": "IC50 ratio", "setting": "[5]", "value": 14.6}, {"measurement": "IC50 ratio", "setting": "[6]", "value": 5.9}]}, {"smiles": "CC(C)c1nn(-c2cnccn2)c(-c2ccc(F)cc2)c1/C=C/[C@@H](O)C[C@@H](O)CC(=O)[O-].[Na+]", "values": [{"measurement": "IC50", "setting": "[1]", "value": 6.6, "unit": "nM"}, {"measurement": "IC50", "setting": "Rattus norvegicus [2]", "value": 10, "unit": "nM"}, {"measurement": "IC50", "setting": "Rattus norvegicus [3]", "value": 20, "unit": "nM"}, {"measurement": "IC50", "setting": "Rattus norvegicus [4]", "value": 64, "unit": "nM"}, {"measurement": "IC50 ratio", "setting": "[5]", "value": 2}, {"measurement": "IC50 ratio", "setting": "[6]", "value": 6.4}]}, {"smiles": "CC(C)c1nn(-c2ccccn2)c(-c2ccc(F)cc2)c1/C=C/[C@@H](O)C[C@@H](O)CC(=O)[O-].[Na+]", "values": [{"measurement": "IC50", "setting": "[1]", "value": 10, "unit": "nM"}, {"measurement": "IC50", "setting": "Rattus norvegicus [2]", "value": 17, "unit": "nM"}, {"measurement": "IC50", "setting": "Rattus norvegicus [3]", "value": 29, "unit": "nM"}, {"measurement": "IC50", "setting": "Rattus norvegicus [4]", "value": 82, "unit": "nM"}, {"measurement": "IC50 ratio", "setting": "[5]", "value": 1.7}, {"measurement": "IC50 ratio", "setting": "[6]", "value": 4.8}]}, {"smiles": "CC(C)c1nn(-c2ccccc2)c(-c2ccc(F)cc2)c1/C=C/[C@@H](O)C[C@@H](O)CC(=O)[O-].[Na+]", "values": [{"measurement": "IC50", "setting": "[1]", "value": 7.2, "unit": "nM"}, {"measurement": "IC50", "setting": "Rattus norvegicus [2]", "value": 34, "unit": "nM"}, {"measurement": "IC50", "setting": "Rattus norvegicus [3]", "value": 12, "unit": "nM"}, {"measurement": "IC50", "setting": "Rattus norvegicus [4]", "value": 8, "unit": "nM"}, {"measurement": "IC50 ratio", "setting": "[5]", "value": 0.35}, {"measurement": "IC50 ratio", "setting": "[6]", "value": 0.24}]}, {"smiles": "Cc1cc(-c2ccc(F)cc2)c(/C=C/[C@@H](O)C[C@@H](O)CC(=O)[O-])c(C(C)C)[n+]1[O-].[Na+]", "values": [{"measurement": "IC50", "setting": "[1]", "value": 9.4, "unit": "nM"}, {"measurement": "IC50", "setting": "Rattus norvegicus [7]", "value": 18, "unit": "nM"}, {"measurement": "IC50", "setting": "Rattus norvegicus [8]", "value": 266, "unit": "nM"}, {"measurement": "IC50", "setting": "Rattus norvegicus [9]", "value": 718, "unit": "nM"}, {"measurement": "IC50 ratio", "setting": "[5]", "value": 14.8}, {"measurement": "IC50 ratio", "setting": "[6]", "value": 39.9}]}, {"smiles": "Cc1cc(-c2ccc(F)cc2)c(/C=C/[C@@H](O)C[C@@H](O)CC(=O)[O-])c(C(C)C)n1.[Na+]", "values": [{"measurement": "IC50", "setting": "[1]", "value": 7.7, "unit": "nM"}, {"measurement": "IC50", "setting": "Rattus norvegicus [2]", "value": 71, "unit": "nM"}, {"measurement": "IC50", "setting": "Rattus norvegicus [4]", "value": 17, "unit": "nM"}, {"measurement": "IC50", "setting": "Rattus norvegicus [8]", "value": 9, "unit": "nM"}, {"measurement": "IC50 ratio", "setting": "[5]", "value": 0.13}, {"measurement": "IC50 ratio", "setting": "[6]", "value": 0.24}]}, {"smiles": "CC(C)c1nc2ccc(Cl)cc2c(-c2ccc(F)cc2)c1/C=C/[C@@H](O)C[C@@H](O)CC(=O)[O-].[Na+]", "values": [{"measurement": "IC50", "setting": "[1]", "value": 480, "unit": "nM"}, {"measurement": "IC50", "setting": "Rattus norvegicus [2]", "value": 6280, "unit": "nM"}, {"measurement": "IC50", "setting": "Rattus norvegicus [3]", "value": 92, "unit": "nM"}, {"measurement": "IC50", "setting": "Rattus norvegicus [4]", "value": 184, "unit": "nM"}, {"measurement": "IC50 ratio", "setting": "[5]", "value": 0.02}, {"measurement": "IC50 ratio", "setting": "[6]", "value": 0.03}]}, {"smiles": "CC(C)c1nc(-c2ccccc2)cc(-c2ccc(F)cc2)c1/C=C/[C@@H](O)C[C@@H](O)CC(=O)[O-].[Na+]", "values": [{"measurement": "IC50", "setting": "[1]", "value": 2, "unit": "nM"}, {"measurement": "IC50", "setting": "Rattus norvegicus [2]", "value": 8070, "unit": "nM"}, {"measurement": "IC50", "setting": "Rattus norvegicus [3]", "value": 77, "unit": "nM"}, {"measurement": "IC50", "setting": "Rattus norvegicus [4]", "value": 16, "unit": "nM"}, {"measurement": "IC50 ratio", "setting": "[5]", "value": 0.01}, {"measurement": "IC50 ratio", "setting": "[6]", "value": 0.002}]}, {"smiles": "Cc1cc(C)c(OC[C@@H](O)C[C@@H](O)CC(=O)[O-])c(C2CCCCCC2)c1.[Na+]", "values": [{"measurement": "IC50", "setting": "[1]", "value": 141, "unit": "nM"}, {"measurement": "IC50", "setting": "Rattus norvegicus [2]", "value": 5170, "unit": "nM"}, {"measurement": "IC50", "setting": "Rattus norvegicus [3]", "value": 108, "unit": "nM"}, {"measurement": "IC50", "setting": "Rattus norvegicus [4]", "value": 63, "unit": "nM"}, {"measurement": "IC50 ratio", "setting": "[5]", "value": 0.02}, {"measurement": "IC50 ratio", "setting": "[6]", "value": 0.01}]}, {"smiles": "CC(C)c1c(Br)c(Br)c(-c2ccc(F)cc2)n1CC[C@@H](O)C[C@@H](O)CC(=O)[O-].[Na+]", "values": [{"measurement": "IC50", "setting": "[1]", "value": 26, "unit": "nM"}, {"measurement": "IC50", "setting": "Rattus norvegicus [2]", "value": 2730, "unit": "nM"}, {"measurement": "IC50", "setting": "Rattus norvegicus [3]", "value": 140, "unit": "nM"}, {"measurement": "IC50", "setting": "Rattus norvegicus [4]", "value": 24, "unit": "nM"}, {"measurement": "IC50 ratio", "setting": "[5]", "value": 0.05}, {"measurement": "IC50 ratio", "setting": "[6]", "value": 0.009}]}, {"smiles": "CC[C@H](C)C(=O)O[C@H]1C[C@H](C)C=C2C=C[C@H](C)[C@H](CC[C@@H]3C[C@@H](O)CC(=O)O3)[C@H]21", "values": [{"measurement": "IC50", "setting": "[1]", "value": 13, "unit": "nM"}, {"measurement": "IC50", "setting": "Rattus norvegicus [2]", "value": 28, "unit": "nM"}, {"measurement": "IC50", "setting": "Rattus norvegicus [3]", "value": 5, "unit": "nM"}, {"measurement": "IC50", "setting": "Rattus norvegicus [4]", "value": 4, "unit": "nM"}, {"measurement": "IC50 ratio", "setting": "[5]", "value": 0.17}, {"measurement": "IC50 ratio", "setting": "[6]", "value": 0.14}]}, {"smiles": "Cc1ccc(-c2ccc(C(C)C)c(OC[C@@H](O)C[C@@H](O)CC(=O)[O-])c2-c2ccc(F)cc2)cc1.[Na+]", "values": [{"measurement": "IC50", "setting": "[1]", "value": 100, "unit": "nM"}, {"measurement": "IC50", "setting": "Rattus norvegicus [2]", "value": 6040, "unit": "nM"}, {"measurement": "IC50", "setting": "Rattus norvegicus [3]", "value": 375, "unit": "nM"}, {"measurement": "IC50", "setting": "Rattus norvegicus [4]", "value": 511, "unit": "nM"}, {"measurement": "IC50 ratio", "setting": "[5]", "value": 0.06}, {"measurement": "IC50 ratio", "setting": "[6]", "value": 0.08}]}, {"smiles": "CC(C)n1c(/C=C/C(O)CC(O)CC(=O)O)c(-c2ccc(F)cc2)c2ccccc21", "note": "(stereo unspecified) [FLUVASTATIN SODIUM]", "values": [{"measurement": "IC50", "setting": "Rattus norvegicus [2]", "value": 142, "unit": "nM"}, {"measurement": "IC50", "setting": "Rattus norvegicus [3]", "value": 292, "unit": "nM"}, {"measurement": "IC50", "setting": "Rattus norvegicus [4]", "value": 4, "unit": "nM"}]}, {"smiles": "CC[C@H](C)C(=O)O[C@H]1C[C@H](O)C=C2C=C[C@H](C)[C@H](CC[C@@H](O)C[C@@H](O)CC(=O)[O-])[C@H]21.[Na+]", "note": "[PRAVASTATIN SODIUM]", "values": [{"measurement": "IC50", "setting": "[1]", "value": 40, "unit": "nM"}, {"measurement": "IC50", "setting": "Rattus norvegicus [2]", "value": 141, "unit": "nM"}, {"measurement": "IC50", "setting": "Rattus norvegicus [3]", "value": 228, "unit": "nM"}, {"measurement": "IC50", "setting": "Rattus norvegicus [4]", "value": 329, "unit": "nM"}, {"measurement": "IC50 ratio", "setting": "[5]", "value": 1.6}, {"measurement": "IC50 ratio", "setting": "[6]", "value": 2.3}]}]}
